Measurements published in publication PMC7719179, “Small molecule inhibition of Dynamin-dependent endocytosis targets multiple niche signals and impairs leukemia stem cells” (Nature Communications, 2020).
“And” between values parts separate entries of the source, which are not always exact repeats. Equal values may be shown once.

Columns and labels:
[1] = tested on: pre-LSC activity of Lmo2^Tg DN3a thymocytes; assay: Transplantation of in vitro treated Lmo2^Tg DN3a thymocytes (fold expansion, engraftment); assay type: in vivo, mouse; settings: thymus of recipients 6 weeks post-transplantation of Lmo2^Tg DN3a thymocytes treated in vitro (Dynole 34-2 0.2 μM, Ruxolitinib 0.2 μM, DAPT 0.1 μM); individual recipients
Experimental: Single-cell suspension of murine thymus cells were intravenously injected into sublethally irradiated (650 Rads) isogenic Ly5.1 (Cd45.1) mice. Fold expansion was calculated by dividing the absolute output number of donor-derived DN3a cells harvested at the experimental endpoint by the respective number of DN3a thymocytes injected in each recipient. Limiting dilution transplantations were performed as described, by injecting various doses (10^1 to 10^6) of thymocytes per recipient, and mice were scored positive when T-cell lineage reconstitution assessed 6 weeks after transplantation was >1%. Leukemia-propagating cell frequency was calculated by applying Poisson statistics using the ELDA: Extreme Limiting Dilution Analysis software (Walter and Eliza Hall Institute Bioinformatics, Parkville VIC, Australia)[96]. Limiting dilution transplantations were performed independently from any other transplantation assays, using thymocytes from three different Lmo2^Tg mice for each cohort. Kaplan–Meier survival and statistical analysis were performed using GraphPad Prism. 6.0 software (GraphPad Software Inc, San Diego CA, USA).

[2] = tested on: pStat5 in leukemic DN3a cells from primary Lmo2^Tg T-ALL; assay: IL-7-induced pStat5 in leukemic DN3a cells from primary Lmo2^Tg T-ALL; assay type: cell-based, mouse
Experimental: Phosphoflow analysis was performed as previously described. Briefly, 2 × 10^6 cells stained for surface markers were subsequently resuspended into PBS 1× + 4% v/v paraformaldehyde and incubated for 10 min at 4 °C for fixation. Fixed cells were washed twice using PBS 1×, then resuspended in pre-chilled at −20 °C Perm Buffer III (BD Pharmingen) and incubated 30 min at 4 °C for permeabilization. Cells were washed twice using PBS 1× and incubated overnight at 4 °C in PBS 1× + 2% v/v fetal calf serum (FCS) with Cell Signalling purified antibodies (Genesearch Pty Ltd, Arundel QLD, Australia) against pSTAT5 (Tyr694; #9359), phospho-p38 MAPK (Thr180/Tyr182; #4511), phospho-p44/42 (Erk1/2; #9102), phospho-S6 (Ser235/236; #4856) and phospho-Akt (Ser473; #9271) or isotype control. For intracellular HES1 detection, cells stained for surface markers were subsequently fixed and permeabilized using the BD Cytofix/Cytoperm^TM Kit and incubated overnight at 4 °C in PBS 1× + 2% v/v FCS with a purified antibody against HES1 (D6PU; #11988, Cell Signalling) or isotype control. After staining with primary antibodies for phosphoflow or intracellular detection, cells were incubated in permeabilization buffer with donkey Alexa Fluor 488-conjugated anti-rabbit secondary antibody (A-21206, lot #1910751, Molecular Probes, Invitrogen) or goat Alexa Fluor 546-conjugated anti-rabbit secondary antibody (A-11035, lot #1904467, Molecular Probes, Invitrogen) for 1 h on ice, and washed twice in PBS 1×. Fluorescence-activated cell sorting (FACS) analysis was performed using LSRII and LSR Fortessa cytometers, following the gating strategies described in Supplementary Fig. 11. Cell sorting was performed with a FACSAria or BD Influx.
For in vitro IL-7 stimulation assays, cells were starved in serum-free DMEM at 37 °C, then incubated with either vehicle or Dynole 34-2 or Ruxolitinib (INCB018424; #S1378, Selleckchem), or DAPT (GSI-IX; #S2215, Selleckchem) resuspended in DMSO for 1 h. Thymocytes were subsequently stimulated with 25 ng/mL IL-7 at 37 °C for 20 min and washed twice using cold PBS 1×. Cells were incubated with 25 ng/mL Rat IgG (Sigma-Aldrich Pty Ltd, Castle Hill NSW, Australia) and with a PE-conjugated antibody for detection of IL-7R (CD127) for 1 h on ice, as described in the FACS analysis section. PE-conjugated isotype was used as negative control. Cells were washed twice, fixed and phosphoflow analysis performed as described in the FACS analysis section. The analysis was performed in triplicate and the mean fluorescence intensity (MFI) observed without stimulation was reported as 100%.

[3] = leukemic DN3a cells of TALL249, IL-7 stimulation
[4] = leukemic DN3a cells of TALL257, IL-7 stimulation
[5] = leukemic DN3a cells of TALL273, IL-7 stimulation
[6] = leukemic DN3a cells of TALL582, IL-7 stimulation
[7] = leukemic DN3a cells of TALL588, IL-7 stimulation
[8] = leukemic DN3a cells of TALL742, IL-7 stimulation

| SMILES | Fold expansion DN3a cells [1] | pStat5 (MFI) [2, 3] [MFI] | pStat5, FOLD over unstimulated [2, 3] [fold] | pStat5 (MFI) [2, 4] [MFI] | pStat5, FOLD over unstimulated [2, 4] [fold] | pStat5 (MFI) [2, 5] [MFI] | pStat5, FOLD over unstimulated [2, 5] [fold] | pStat5 (MFI) [2, 6] [MFI] | pStat5, FOLD over unstimulated [2, 6] [fold] | pStat5 (MFI) [2, 7] [MFI] | pStat5, FOLD over unstimulated [2, 7] [fold] | pStat5 (MFI) [2, 8] [MFI] | pStat5, FOLD over unstimulated [2, 8] [fold] |
| --- | --- | --- | --- | --- | --- | --- | --- | --- | --- | --- | --- | --- | --- |
| C[C@H](NC(=O)Cc1cc(F)cc(F)c1)C(=O)N[C@H](C(=O)OC(C)(C)C)c1ccccc1 [DAPT, N-[N-(3,5-Difluorophenacetyl)-L-alanyl]-S-phenylglycine t-butyl ester] | 0.05 fold and 0.01 fold and 0.07 fold and 2.41 fold and 0.20 fold and 11.64 fold | 15113 | 3.80 | 2628 | 1.69 | 2744 | 1.22 | 34040 | 0.89 | 3980 | 1.55 | 7661 | 1.35 |
| CCCCCCCCNC(=O)C(C#N)=Cc1cn(CCCN(C)C)c2ccccc12 [Dynole 34-2, 2-Cyano-N-octyl-3-(1-(3-dimethylaminopropyl)-1H-indol-3-yl)-acrylamide] | 0.05 fold and 0.01 fold and 3.00 fold and 6.41 fold and 5.91 fold and 0.19 fold and 17.69 fold | 3097 | 0.78 | 1676 | 1.08 | 2251 | 1.00 | 15189 | 0.40 | 2662 | 1.03 | 5864 | 1.03 |
| N#CC[C@H](C1CCCC1)n1cc(-c2ncnc3[nH]ccc23)cn1 [Ruxolitinib] | 0.06 fold and 0.01 fold and 5.29 fold and 8.54 fold and 22.76 fold and 8.51 fold | 2437 | 0.61 | 2111 | 1.36 | 2300 | 1.02 | 33429 | 0.88 | 3772 | 1.47 | 5460 | 0.96 |
